Reference: patent publication US12019075B2, “Zwitterionic nanoparticles” (FRAUNHOFER-GESELLSCHAFT ZUR FOERDERUNG DER ANGEWANDTEN …, priority 2017, dated 2024)

Test system: A549 cells
Assay: Toxicity test with Cellomics Array Scan
Format: cell-based, human
Description: The toxicity of the zwitterionic QDQRs-17a and QDQRs-17b was tested using the Cellomics Array Scan. For the toxicity tests, A549 cells were plated on a 96-well plate and incubated with QDQR solutions in a concentration range of 25 to 500 nM. Cadmium chloride, which was used in a concentration range from 25 to 1,000 μM, was used as the positive control. The increase in the cadmium chloride concentration by a factor of 1,000 is due to the fact that a single QDQR of the tested samples contains about 8,200 cadmium atoms. Assuming that the totality of the nanoparticles dissolve and release the cadmium contained in them, the lowest concentration of 25 nM QDQRs used would correspond to a concentration of 205 μM cadmium chloride. After an incubation period of 16 hours, the cells were blended with a staining solution consisting of the cell nucleus dye Hoechst 33342 and the mitochondrial dye MitoTracker® Deep Red FM and then fixed with formaldehyde solution. The 96-well plates were then read out with the Cellomics Array Scan. A software was used to automatically determine the parameters number of cells, cell nucleus intensity and cell nucleus size using the intensity of the dye by Hoechst, and the transmembrane potential of the mitochondria on the basis of the mitochondrial dye. In addition, microscopic images of the cells were taken to control the number of cells and cell morphology.
For the toxicity tests, A549 cells were plated in culture medium on a 96-well plate (10,000 cells per well) and incubated overnight. When the medium had been sucked off, the samples to be tested (diluted with culture medium, 100 μL per well) were applied in different concentrations and incubated for 16 hours. The samples were then removed and the cells were mixed with 100 μL staining solution (final concentration: 75 nM MitoTracker® Deep Red and […] Hoechst 33342 in DMEM with 10% FCS) and incubated for a further 30 minutes. […] After 20 minutes, the fixing solution was sucked off and washed twice with DPBS before the samples were measured on the Cellomics Array Scan.

[Cl][Cd][Cl] [cadmium chloride] was tested, and the “morphological changes of the cells or cell nuclei (microscopic images)” value (16 hours incubation) was “the number of cells decreases noticeably and they get globular”, the “concentration with toxic effect on the cells” value (16 hours incubation, tested 25 to 1,000 μM) was at least 100 µM and the “number of cells per well, cell nucleus intensity and cell nucleus size” value (16 hours, 100 μM or more) was “decreases significantly”.
